Patent US20250019385A1, “SPIROCYCLIC ANNULATED 2-AMINO-3-CYANO THIOPHENES AND DERIVATIVES FOR THE TREATMENT OF CANCER” (Boehringer Ingelheim International GmbH, priority 2023, published 2025)

Assays:
NCI-H727 cells = assay: NCI-H727 CTG proliferation assay (120 h) (lung cancer, G12V); type: cell-based; settings: Homo sapiens
Method in brief: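 Cells seeded at 500/well in RPMI + 10% FCS, left overnight, then dosed with a log dilution series in technical duplicate; untreated T0 plate read at compound addition. After 120 h at 37 °C, CellTiter-Glo luminescence read; viability as % of DMSO control, IC50 from four-parameter non-linear regression.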

[1] = Plasma protein binding assay (PPB), equilibrium dialysis; type: in vitro ADME; settings: bovine, 10% FCS in PBS, read-out: PPB 10% FCS (% fu)
Method in brief: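 Compound at 1-10 μmol/L in 10% FCS in PBS was dialysed against PBS (with or without dextran) across a 5-10 kg/mol cut-off membrane for 3-5 h at 37° C. Both chambers were protein-precipitated and compound was quantified by LC-MS. The unbound fraction was calculated from the serum-side and buffer-side concentrations.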

Ba/F3 cells KRAS G12C = assay: Ba/F3 proliferation assay (KRAS G12C); type: cell-based; settings: Mus musculus, BaF3, 72 h, AlamarBlue viability
Method in brief: (§1)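 Ba/F3 cells retrovirally transduced with KRAS G12 mutant, puromycin-selected, grown IL-3-independent; seeded in RPMI-1640 + 10% FCS without IL-3. Logarithmic compound dose series in duplicate, 72 h at 37° C., AlamarBlue fluorescence as % of DMSO control; IC50 from four-parameter non-linear regression.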

NCI-H358 cells = assay: NCI-H358 CTG proliferation assay (120 h) (NSCLC, G12C); type: cell-based; settings: Homo sapiens
Method in brief: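 Cells seeded at 200 per well in RPMI-1640 with 10% FCS, left overnight, then treated with a logarithmic dose series in duplicate for 120 h. Viability measured by CellTiter-Glo luminescence as percent of DMSO controls; IC50 from four-parameter non-linear regression.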

Ba/F3 cells KRAS G12V = assay: Ba/F3 proliferation assay (KRAS G12V); type: cell-based; settings: Mus musculus, BaF3, 72 h, AlamarBlue viability
Method in brief: as §1

MKN1 cells = assay: MKN1 CTG proliferation assay (120 h) (gastric cancer, wt amplified); type: cell-based; settings: Homo sapiens, MKN-1
Method in brief: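 Cells were seeded at 200 per well in RPMI-1640 with 10% FCS, grown overnight, then exposed to logarithmic compound dilutions in duplicate for 120 h. Viability was read by CellTiter-Glo luminescence as percent of DMSO controls, with untreated T0 cells measured at dosing. IC50 came from four-parameter non-linear regression.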

`C[C@H](Oc1nc(-c2onc3c2CCC[C@@]32CCCc3sc(N)c(C#N)c32)nc2c1n(C)c(=O)n2C12COC(C1)C2)[C@@H]1CCCN1C` [I-15] showed an IC50 (NCI-H727 cells) of 14 nM, a fraction unbound [1] of 0.13 and an IC50 (Ba/F3 cells KRAS G12C) of 16 nM. For the same compound, the IC50 (NCI-H358 cells) was 11 nM, the IC50 (Ba/F3 cells KRAS G12V) was 11 nM and the IC50 (MKN1 cells) was 47 nM.

Work on `CO[C@H]1C[C@H](n2c(=O)n(C)c3c(O[C@@H](C)[C@@H]4CCCN4C)nc(-c4onc5c4CCC[C@@]54CCCc5sc(N)c(C#N)c54)nc32)C1` [I-16] yielded an IC50 (NCI-H727 cells) of 152 nM, a fraction unbound [1] of 0.13 and an IC50 (Ba/F3 cells KRAS G12C) of 288 nM. The IC50 (NCI-H358 cells) was 141 nM, the IC50 (Ba/F3 cells KRAS G12V) was 226 nM and the IC50 (MKN1 cells) was 353 nM.

With `C[C@H](Oc1nc(-c2noc3c2CCC[C@@]32CCCc3sc(N)c(C#N)c32)nc2c1COC[C@@]21CCOC1)[C@@H]1CCCN1C` [II-9a] the IC50 (NCI-H727 cells) was 22 nM, the fraction unbound [1] was 0.07 and the IC50 (Ba/F3 cells KRAS G12C) was 84 nM. For the same compound, the IC50 (NCI-H358 cells) was 74 nM, the IC50 (Ba/F3 cells KRAS G12V) was 28 nM and the IC50 (MKN1 cells) was 209 nM.

`CCn1c(=O)n([C@@H]2CCCOC2)c2nc(-c3onc4c3CCC[C@@]43CCCc4sc(N)c(C#N)c43)nc(OC[C@@]34CCCN3C[C@H](F)C4)c21` [I-33] gave an IC50 (NCI-H727 cells) of 899 nM, a fraction unbound [1] of 0.02 and an IC50 (Ba/F3 cells KRAS G12C) of 1600 nM. It also gave an IC50 (NCI-H358 cells) of 921 nM, an IC50 (Ba/F3 cells KRAS G12V) of 739 nM and an IC50 (MKN1 cells) of 4150 nM.

Compound `C[C@H](Oc1nc(-c2onc3c2CCC[C@@]32CCCc3sc(N)c(C#N)c32)nc2c1n(C)c(=O)n2[C@H]1CCOC1)[C@@H]1CCCN1C` [I-9] has an IC50 (NCI-H727 cells) of 138 nM, a fraction unbound [1] of 0.25 and an IC50 (Ba/F3 cells KRAS G12C) of 38 nM. The IC50 (NCI-H358 cells) was 52 nM, the IC50 (Ba/F3 cells KRAS G12V) was 20 nM and the IC50 (MKN1 cells) was 135 nM.

With `Cc1nn([C@@H]2CCOC2)c2nc(-c3onc4c3CCC[C@@]43CCCc4sc(N)c(C#N)c43)nc(O[C@@H](C)[C@@H]3CCCN3C)c12` [I-42] the IC50 (NCI-H727 cells) was 39 nM, the fraction unbound [1] was 0.11 and the IC50 (Ba/F3 cells KRAS G12C) was 17 nM. The IC50 (NCI-H358 cells) was 21 nM, the IC50 (Ba/F3 cells KRAS G12V) was 11 nM and the IC50 (MKN1 cells) was 81 nM.

Compound `C[C@H](Oc1nc(-c2noc3c2CCC[C@@]32CCCc3sc(N)c(C#N)c32)nc2c1COC[C@]21CCOC1)[C@@H]1CCCN1C` [II-8] has an IC50 (NCI-H727 cells) of 1 nM, a fraction unbound [1] of 0.13 and an IC50 (Ba/F3 cells KRAS G12C) of 2 nM. It also gave an IC50 (NCI-H358 cells) of 1 nM, an IC50 (Ba/F3 cells KRAS G12V) of 1 nM and an IC50 (MKN1 cells) of 3 nM.

With `CO[C@@H]1C[C@@H]([C@H](C)Oc2nc(-c3onc4c3CCC[C@@]43CCCc4sc(N)c(C#N)c43)nc3c2n(C)c(=O)n3[C@@H]2CCOC2)N(C)C1` [I-3] the IC50 (NCI-H727 cells) was 5 nM, the fraction unbound [1] was 0.11 and the IC50 (Ba/F3 cells KRAS G12C) was 6 nM. It also gave an IC50 (NCI-H358 cells) of 4 nM, an IC50 (Ba/F3 cells KRAS G12V) of 3 nM and an IC50 (MKN1 cells) of 22 nM.

`C[C@H](Oc1nc(-c2onc3c2CCC[C@@]32CCCc3sc(N)c(C#N)c32)nc2c1n(C)c(=O)n2[C@@H]1CCOC1)[C@@H]1[C@H](F)CCN1C` [I-4] gave an IC50 (NCI-H727 cells) of 33 nM, a fraction unbound [1] of 0.13 and an IC50 (Ba/F3 cells KRAS G12C) of 58 nM. For the same compound, the IC50 (NCI-H358 cells) was 107 nM, the IC50 (Ba/F3 cells KRAS G12V) was 25 nM and the IC50 (MKN1 cells) was 509 nM.

`CO[C@H]1CCN(C)[C@@H]1[C@H](C)Oc1nc(-c2noc3c2CCC[C@@]32CCCc3sc(N)c(C#N)c32)nc2c1CN(C1COC1)C[C@]21CCOC1` [II-13] gave an IC50 (NCI-H727 cells) of 1 nM, a fraction unbound [1] of 0.09 and an IC50 (Ba/F3 cells KRAS G12C) of 2 nM. For the same compound, the IC50 (NCI-H358 cells) was 2 nM, the IC50 (Ba/F3 cells KRAS G12V) was 1 nM and the IC50 (MKN1 cells) was 5 nM.

In the case of `C[C@H](Oc1nc(-c2onc3c2CCC[C@@]32CCCc3sc(N)c(C#N)c32)nc2c1ncn2[C@@H]1CCOC1)[C@@H]1CCCN1C` [I-38], the IC50 (NCI-H727 cells) is reported as 34 nM, the fraction unbound [1] is reported as 0.34 and the IC50 (Ba/F3 cells KRAS G12C) is reported as 33 nM. The IC50 (NCI-H358 cells) was 9 nM, the IC50 (Ba/F3 cells KRAS G12V) was 20 nM and the IC50 (MKN1 cells) was 32 nM.

Compound `CCn1c(=O)n([C@@H]2CCCOC2)c2nc(-c3onc4c3CCC[C@@]43CCCc4sc(N)c(C#N)c43)nc(OCC34CCCN3CCC4)c21` [I-34] has an IC50 (NCI-H727 cells) of 282 nM, a fraction unbound [1] of 0.07 and an IC50 (Ba/F3 cells KRAS G12C) of 1180 nM. For the same compound, the IC50 (NCI-H358 cells) was 475 nM, the IC50 (Ba/F3 cells KRAS G12V) was 553 nM and the IC50 (MKN1 cells) was 3400 nM.

Work on `CCn1c(=O)n([C@@H]2CCCOC2)c2nc(-c3onc4c3CCC[C@@]43CCCc4sc(N)c(C#N)c43)nc(O[C@@H](C)[C@@H]3CCCN3C)c21` [I-30] yielded an IC50 (NCI-H727 cells) of 6 nM, a fraction unbound [1] of 0.08 and an IC50 (Ba/F3 cells KRAS G12C) of 11 nM. It also gave an IC50 (NCI-H358 cells) of 7 nM, an IC50 (Ba/F3 cells KRAS G12V) of 5 nM and an IC50 (MKN1 cells) of 39 nM.

In the case of `C[C@H](Oc1nc(-c2onc3c2CCC[C@@]32CCCc3sc(N)c(C#N)c32)nc2c1n(C)c(=O)n2[C@@H]1CCOC1)[C@@H]1CC[C@H](C)N1C` [I-26], the IC50 (NCI-H727 cells) is reported as 4 nM, the fraction unbound [1] is reported as 0.17 and the IC50 (Ba/F3 cells KRAS G12C) is reported as 3 nM. It also gave an IC50 (NCI-H358 cells) of 7 nM, an IC50 (Ba/F3 cells KRAS G12V) of 2 nM and an IC50 (MKN1 cells) of 24 nM.

`C[C@H](Oc1nc(-c2onc3c2CCC[C@@]32CCCc3sc(N)c(C#N)c32)nc2c1n(C)c(=O)n2[C@@]12COC[C@@H]1C2)[C@@H]1CC[C@H](C)N1C` [I-45] showed an IC50 (NCI-H727 cells) of 1 nM, a fraction unbound [1] of 0.2 and an IC50 (Ba/F3 cells KRAS G12C) of 1 nM. It also gave an IC50 (NCI-H358 cells) of 5 nM, an IC50 (Ba/F3 cells KRAS G12V) of 1 nM and an IC50 (MKN1 cells) of 11 nM.

Work on `COCCn1c(=O)n(C)c2c(O[C@@H](C)[C@@H]3CCCN3C)nc(-c3onc4c3CCC[C@@]43CCCc4sc(N)c(C#N)c43)nc21` [I-7] yielded an IC50 (NCI-H727 cells) of 348 nM, a fraction unbound [1] of 0.24 and an IC50 (Ba/F3 cells KRAS G12C) of 99 nM. For the same compound, the IC50 (NCI-H358 cells) was 124 nM, the IC50 (Ba/F3 cells KRAS G12V) was 46 nM and the IC50 (MKN1 cells) was 373 nM.

For `C[C@H](Oc1nc(-c2noc3c2CCC[C@@]32CCCc3sc(N)c(C#N)c32)nc2c1CNC[C@]21CCOC1)[C@@H]1CCCN1C` [II-15], the IC50 (NCI-H727 cells) was 3 nM, the fraction unbound [1] was 0.3 and the IC50 (Ba/F3 cells KRAS G12C) was 1 nM. For the same compound, the IC50 (NCI-H358 cells) was 1 nM, the IC50 (Ba/F3 cells KRAS G12V) was 2 nM and the IC50 (MKN1 cells) was 3 nM.

`CO[C@@H]1C[C@@H]([C@H](C)Oc2nc(-c3noc4c3CCC[C@@]43CCCc4sc(N)c(C#N)c43)nc3c2CN(C2COC2)C[C@]32CCOC2)N(C)C1` [II-14] showed an IC50 (NCI-H727 cells) of 3 nM, a fraction unbound [1] of 0.12 and an IC50 (Ba/F3 cells KRAS G12C) of 3 nM. It also gave an IC50 (NCI-H358 cells) of 4 nM, an IC50 (Ba/F3 cells KRAS G12V) of 2 nM and an IC50 (MKN1 cells) of 19 nM.
